We go through 5 compounds from patent US20220142948A1, “COMPOSITIONS AND METHODS FOR MODULATING METABOLIC REGULATORS OF T CELL PATHOGENICITY” (The Broad Institute, Inc., priority 2019, published 2022).

The test system of assay [1] is Th17 cells (Th17n, Th17p). Kind of assay: Legendplex analysis of cytokines in culture supernatant. To be noted: glycolysis enzyme inhibitors; Th17 cell cultures. The class given is cell-based, mouse. The method, then:
Legendplex. Cytokine concentrations in supernatants of in vitro cultures were analyzed by the LegendPlex Mouse Th Cytokine Panel (13-plex) (BioLegend) according to the manufacturer's instructions and analyzed on a FACS LSR II (BD Biosciences).
Seahorse assay was performed and seahorse media was prepared following manufacturer instructions (Agilent). Cells were re-stimulated with PMA/ionomycin for four hours in the presence of brefaldin and monensin before analysis for cytokines by intracellular cytokine staining. Cytokine concentrations in supernatants of in vitro cultures were analyzed by the LegendPlex Mouse Th Cytokine Panel (13-plex) (BioLegend) according to the manufacturer's instructions and analyzed on a FACS LSR II (BD Biosciences).

Assay [2] relates to Th17 cells (Th17n, Th17p). The assay can be described thus: T cell differentiation culture and flow cytometry (intracellular cytokine and transcription factor staining, CellTrace proliferation). The conditions noted are these: for IL-17 positive CD4 T cells / IL-17 expression: glycolysis enzyme inhibitors, non-pathogenic or pathogenic Th17 conditions, cells after one division.
Method: Naïve CD4+CD44-CD62L+CD25-T cells were sorted using BD FACSAria sorter and activated with plate-bound anti-CD3 (1 μg/ml) and antiCD28 antibodies (2 μg/ml) in the presence of cytokines at a concentration of 5×10^5 cells/ml.
Naïve CD4+CD44-CD62L+CD25− T cells with or without including IL-17A.GFP+ were sorted using BD FACSAria sorter and activated with plate-bound anti-CD3 and antiCD28 antibodies (each 1 μg/ml) in the presence of cytokines at a concentration of 5×10^5 cells/ml. For T cell differentiations the following combinations of cytokines were used: pathogenic Th17 (Th17p): 25 ng/ml rmIL-6, 20 ng/ml rmIL-1b (both Miltenyi Biotec) and 20 ng/ml rmIL-23 (R&D systems); non-pathogenic Th17 (Th17n): 25 ng/ml rmIL-6 and 2 ng/ml of rhTGFb1 (Miltenyi Biotec). For differentiation experiments, cells were harvested at 72 hours and were performed in the presence or absence of 50 μM EGCG (Selleck Chemicals), 50 μM DHEA, 40 μM DCA, 10 μM Shikonin (all Sigma) as indicated.
Proliferation was assessed by staining with CellTrace Violet (Thermo Fisher Scientific) per manufacturer's instructions. All stainings were analyzed on a FACS LSR II (BD Bioscience) and using FlowJo software.
The test system of assay [3] is Th17n, Th17p and iTreg cells. The assay can be described thus: Population (bulk) RNA-seq of in vitro differentiated T cells. In kind it is cell-based, mouse. The method, then:
(§1) RNA-seq. For population (bulk) RNA-seq, in vitro differentiated T-cells were sorted for live cells and lysed with RLT Plus buffer and RNA was extracted using the RNeasy Plus Mini Kit (Qiagen). Full-length RNA-seq libraries were prepared as previously described and paired-end sequenced (75 bp×2) with a 150 cycle Nextseq 500 high output V2 kit.
Bulk RNA-Seq and SMART-Seq2 analysis. Applicants aligned single-cell SMART-Seq2 libraries with Bowtie2, quantified TPM gene expression with RSEM, and performed QC as Applicants described in detail in a previous publication^51. This computational pipeline is a massively revised and updated version of the one originally used to analyze these libraries^19. Batch effects and other nuisance factors were normalized with a model chosen empirically with SCONE ^52. Bulk RNA-Seq were processed with a modified variant of the same pipeline. In the absence of UMIs, differentially expressed genes were called through a linear model fitted to TPM values with the limma R package and with a mean-variance trend added to the empirical bayes prior^53,54.
as §1
Bulk RNA libraries from DFMO- or vehicle-treated Th17p, Th17n, or Treg were studied with 3 replicates per condition for a total of 18 libraries as shown in FIG. 36A. Genes that are associated with a Th17 or Treg programs (orange and purple, respectively, in FIG. 36B-C) were determined by differential expression test between bulk RNA libraries of (vehicle-treated) Th17n and Th17p on one side and Treg on the other with BH-adjusted p<0.05 and absolute value of log 2 fold-change of at least 1.5. Genes associated with the Th17p or Th17n program (magenta and green, respectively, in FIG. 40A) were determined by differential expression test between bulk RNA libraries of (vehicle-treated) Th17p vs. Th17n with the same thresholds. The PCA shown in FIG. 36A was computed on the set of 3,414 that were differentially associated with Th17, Treg, Th17p, or Th17n programs by the aforementioned criteria to focus it on the subspace of the transcriptome relevant to Th17 pathogenicity phenotypes.
Applicants aligned single-cell SMART-Seq libraries with Bowtie2, quantified TPM gene expression with RSEM, and performed QC as Applicants described in detail in a previous publication (Fletcher et al., 2017). This computational pipeline is a massively revised and updated version of the one originally used to analyze these libraries (Gaublomme et al., 2015). Batch effects and other nuisance factors were normalized with a model chosen empirically with SCONE (Cole et al., 2019). Bulk RNA-Seq were processed with a modified variant of the same pipeline.
For the Smart-Seq libraries, due the absence of UMIs in the dataset, differentially expressed genes were called through a linear model _tted to TPM values with the limma R package and with a mean-variance trend added to the empirical Bayes prior (Ritchie et al., 2015). For the bulk RNA libraries, differentially expressed genes were called with limma-trend or limma-voom (Law et al., 2014) depending on the variance of library sizes, as recommended in the limma package manual (Smyth, 2019).

Assay [4] relates to MOG35-55 specific T cells. The assay can be described thus: Antigen-specific recall response of draining lymph node cells to MOG35-55 (thymidine incorporation, Legendplex). To be noted: mice transferred with DHEA-treated Th17p cells. In kind it is in vivo, mouse. Here is the method: FIG. 37A-37I—Targeting ODC1 and SAT1 alleviate EAE. (A) Schematics of the polyamine pathway; (B-D) The effects of chemical inhibition of ODC1 by DFMO on EAE. Wildtype mice were immunized with MOG35-55/CFA to induce experimental autoimmune encephalomyelitis and followed for clinical scoring. DFMO were provided in drinking water from day 0 for 10 days in experimental group. B, Clinical score over time. […] C, Antigen-specific cell proliferation is measured by thymidine incorporation after culturing cells isolated from draining lymph node of mice (d15 post immunization) with increasing dose of MOG35-55 peptide for 3 days. D, Flow cytometric analysis of intracellular Foxp3 expression in T cells isolated from CNS at day 15 post immunization. (E-I) The effects of genetic perturbation of SAT1. E, The effects of SAT1 deficiency on metabolome. Abundance of metabolites in the polyamine pathway were determined by LC/MS based metabolomics. Th17n and Th17p cells were differentiated in vitro from naïve cells isolated from WT or SAT1^−/− mice. (F-I) The effects of SAT1 deficiency on EAE. EAE were induced as in (B) in wildtype and SAT1^fl/flCD4^cre mice. F, Clinical score (left) and histological score (right) showing the number of CNS infiltrates show representative experiment with 5 WT and 8 CKO mice. G-H, Cells were isolated from draining lymph node of mice (d23 post immunization) and co-cultured with increasing dose of MOG35-55 peptide for 3 days. Antigen-specific cell proliferation is measured by thymidine incorporation (G) and antigen-specific cytokine secretion by legendplex (H). I, Flow cytometry analysis of intracellular transcription factor expression in CD4 T cells isolated from CNS day 15 post immunization. Linear regression analysis (b, c, f, g), two-way anova (e) and student t test (d, i) were used for statistical analysis.
FIG. 46A-46J—EGCG exacerbates and DHEA ameliorates Th17-induced EAE in vivo. 2D2 TCR-transgenic Th17 cells were adoptively transferred after differentiation in vitro in the presence of an inhibitor or vehicle as indicated. (A, C, G) Clinical outcome of EAE; (B, D) Histological score based on cell infiltrates in meninges and parenchyma of CNS; (E, F) Draining lymph node (cervical) from respective mice were isolated and pulsed with increasing dose of MOG35-55 peptide for 3 days and (E) subjected to thymidine incorporation assay; or (F) measurement of cytokine secretion by Legendplex and flow cytometry. Concentrations were normalized through division by the respective response to no antigen control (H-I) Independent pathological report of CNS isolated from mice with EAE at end point (d35 for EGCG experiments; d28 for DHEA experiment); Optic nerves were not found in the histologic section from one animal in the EGCG+IL-23 group. (J) Representative histology of spinal cord and spinal nerve roots. […] PC, posterior column; PH, posterior horn. Individual mouse numbers are indicated. […] All are H. & E., 40× objective. Three similar experiments were performed.
(In general: Dividing cells build labelled thymidine or BrdU into new DNA.)

The subject of assay [5] is experimental autoimmune encephalomyelitis (EAE). The assay can be described thus: Adoptive transfer EAE with 2D2 TCR-transgenic Th17 cells differentiated in the presence of inhibitor. In kind it is in vivo, mouse. The text has this:
For adoptive transfer EAE, naïve 2D2 transgenic T cells were sorted and differentiated into Th17n cells+/−EGCG or Th17p+/−DHEA as described for three days followed by a resting phase in the presence of IL-23 alone for 2 days. Cells were then harvested and restimulated with plate-bound anti-CD3 and anti-CD28 for 2 days prior to transfer. 2-8 million cells were transferred per mouse intravenously.
For adoptive transfer EAE, naive T cells (CD4+CD44-CD62L+CD25-) were isolated from 2D2 TCR-transgenic mice and activated with anti-CD3 ([…]) and anti-CD28 ([…]) in the presence of differentiation cytokines for 68h. Cells were rested for 2 days and restimulated with plate-bound anti-CD3 (0.5 mg/ml for pathogenic condition; […] for non-pathogenic condition) and anti-CD28 ([…]) for 2 days prior to transfer. Equal number (2 to 8 million) cells were transferred per mouse intravenously.

The next assay concerns the target UTX (KDM6A) (Homo sapiens, UniProt O15550). To be noted: cited from earlier work.
The target of a further assay is KDMSB (Homo sapiens, UniProt Q9UGL1). The conditions noted are these: cited from earlier work.
KDMSB, sequence (Q9UGL1 whole entry): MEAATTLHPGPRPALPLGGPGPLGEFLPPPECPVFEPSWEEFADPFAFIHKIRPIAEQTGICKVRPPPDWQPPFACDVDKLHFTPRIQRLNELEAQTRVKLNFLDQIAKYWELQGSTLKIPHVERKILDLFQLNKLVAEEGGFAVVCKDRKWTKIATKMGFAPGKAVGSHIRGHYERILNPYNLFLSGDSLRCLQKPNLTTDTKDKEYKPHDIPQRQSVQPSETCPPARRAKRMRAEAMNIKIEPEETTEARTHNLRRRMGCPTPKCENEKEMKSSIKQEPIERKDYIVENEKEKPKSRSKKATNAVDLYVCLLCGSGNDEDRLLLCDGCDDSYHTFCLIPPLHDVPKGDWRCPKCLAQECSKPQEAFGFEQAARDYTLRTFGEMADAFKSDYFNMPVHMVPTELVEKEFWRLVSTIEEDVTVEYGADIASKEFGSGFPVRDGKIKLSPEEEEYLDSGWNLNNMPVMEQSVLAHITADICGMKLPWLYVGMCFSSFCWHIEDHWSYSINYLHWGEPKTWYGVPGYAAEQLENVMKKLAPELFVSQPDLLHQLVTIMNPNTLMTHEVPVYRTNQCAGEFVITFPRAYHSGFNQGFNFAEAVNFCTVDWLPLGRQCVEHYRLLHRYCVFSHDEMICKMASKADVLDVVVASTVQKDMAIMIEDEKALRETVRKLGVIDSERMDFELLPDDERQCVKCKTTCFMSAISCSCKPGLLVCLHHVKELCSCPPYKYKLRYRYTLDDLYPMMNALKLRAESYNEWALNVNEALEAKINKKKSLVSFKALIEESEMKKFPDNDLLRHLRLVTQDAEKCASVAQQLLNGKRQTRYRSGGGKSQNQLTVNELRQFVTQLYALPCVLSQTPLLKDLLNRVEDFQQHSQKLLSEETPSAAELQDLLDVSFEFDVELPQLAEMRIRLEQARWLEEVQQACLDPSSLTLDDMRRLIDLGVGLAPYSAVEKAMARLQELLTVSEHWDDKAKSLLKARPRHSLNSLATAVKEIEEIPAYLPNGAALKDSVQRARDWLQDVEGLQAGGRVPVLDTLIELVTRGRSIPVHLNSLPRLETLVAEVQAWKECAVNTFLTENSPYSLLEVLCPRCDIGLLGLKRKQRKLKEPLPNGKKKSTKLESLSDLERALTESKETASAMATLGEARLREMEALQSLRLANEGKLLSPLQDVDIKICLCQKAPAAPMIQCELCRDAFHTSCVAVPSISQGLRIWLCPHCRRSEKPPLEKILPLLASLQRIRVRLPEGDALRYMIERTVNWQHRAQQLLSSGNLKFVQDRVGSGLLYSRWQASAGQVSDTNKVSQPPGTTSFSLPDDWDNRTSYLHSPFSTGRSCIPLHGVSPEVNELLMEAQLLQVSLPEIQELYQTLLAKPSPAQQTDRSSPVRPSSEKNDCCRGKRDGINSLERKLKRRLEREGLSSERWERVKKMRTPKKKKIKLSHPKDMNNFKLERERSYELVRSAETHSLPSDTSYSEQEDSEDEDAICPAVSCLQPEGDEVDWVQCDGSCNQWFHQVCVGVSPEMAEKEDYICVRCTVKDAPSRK
The target in another assay is KDMSC (Homo sapiens, UniProt P41229). The conditions noted are these: cited from earlier work.
KDMSC, sequence (P41229 whole entry): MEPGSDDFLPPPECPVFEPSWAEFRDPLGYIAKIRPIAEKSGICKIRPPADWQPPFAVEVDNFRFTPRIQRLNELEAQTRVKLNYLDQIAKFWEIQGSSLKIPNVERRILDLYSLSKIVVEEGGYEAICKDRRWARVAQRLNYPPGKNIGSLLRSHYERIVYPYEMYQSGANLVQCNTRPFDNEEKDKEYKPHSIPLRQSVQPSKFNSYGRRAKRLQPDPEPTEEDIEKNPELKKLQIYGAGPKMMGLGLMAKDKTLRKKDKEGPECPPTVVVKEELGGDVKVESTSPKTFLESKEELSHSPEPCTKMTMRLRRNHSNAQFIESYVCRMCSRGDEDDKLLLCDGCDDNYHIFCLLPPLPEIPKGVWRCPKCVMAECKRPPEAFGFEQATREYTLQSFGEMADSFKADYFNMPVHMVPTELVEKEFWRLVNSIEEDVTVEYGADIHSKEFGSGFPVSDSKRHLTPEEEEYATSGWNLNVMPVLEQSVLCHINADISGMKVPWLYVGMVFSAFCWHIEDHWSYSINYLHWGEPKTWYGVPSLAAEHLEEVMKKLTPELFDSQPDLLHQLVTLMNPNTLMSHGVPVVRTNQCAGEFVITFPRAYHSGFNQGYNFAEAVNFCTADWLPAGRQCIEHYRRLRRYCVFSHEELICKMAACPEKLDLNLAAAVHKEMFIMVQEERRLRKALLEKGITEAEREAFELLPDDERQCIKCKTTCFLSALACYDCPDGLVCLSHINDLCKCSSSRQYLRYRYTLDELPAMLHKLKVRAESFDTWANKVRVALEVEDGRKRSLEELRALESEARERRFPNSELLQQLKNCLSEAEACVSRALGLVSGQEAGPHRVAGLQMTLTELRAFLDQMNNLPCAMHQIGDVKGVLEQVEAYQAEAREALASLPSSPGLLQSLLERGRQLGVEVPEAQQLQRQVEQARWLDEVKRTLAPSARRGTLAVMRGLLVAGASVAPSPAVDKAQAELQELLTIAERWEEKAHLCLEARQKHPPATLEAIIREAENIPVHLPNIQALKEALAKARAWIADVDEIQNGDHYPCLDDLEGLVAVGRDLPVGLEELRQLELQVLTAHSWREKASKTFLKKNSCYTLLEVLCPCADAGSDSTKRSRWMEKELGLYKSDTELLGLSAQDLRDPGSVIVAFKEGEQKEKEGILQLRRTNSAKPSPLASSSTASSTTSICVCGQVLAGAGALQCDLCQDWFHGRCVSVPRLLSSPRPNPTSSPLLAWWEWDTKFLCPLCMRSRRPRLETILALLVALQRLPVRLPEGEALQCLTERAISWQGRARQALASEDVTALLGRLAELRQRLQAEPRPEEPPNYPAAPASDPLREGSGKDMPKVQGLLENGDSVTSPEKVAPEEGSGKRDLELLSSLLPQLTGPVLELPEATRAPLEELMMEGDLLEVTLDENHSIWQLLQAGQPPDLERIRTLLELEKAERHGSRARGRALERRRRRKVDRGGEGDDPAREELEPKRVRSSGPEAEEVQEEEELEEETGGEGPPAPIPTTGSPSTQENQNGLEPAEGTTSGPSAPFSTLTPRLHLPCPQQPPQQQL
A further assay has as its target KDMSA (Homo sapiens, UniProt P29375). The conditions noted are these: cited from earlier work.
For assay [6], the system named is other histone demethylases. The conditions noted are these: cited from earlier work.
For the next assay, the system named is 100 protein kinases. To be noted: at a concentration of 30 μM; cited from earlier work.
The subject of a further assay is Th17n and Th17p cells. The assay can be described thus: Seahorse assay, oxygen consumption rate. In kind it is cell-based, mouse. To be noted: 40 uM etomoxir. The method, then: FIG. 44A-44I—Differential usage of glycolysis and fatty acid oxidation by pathogenic and non-pathogenic Th17 cells. (A) A diagram of central carbon metabolism, overlaid with Compass prediction for differential potential activity between Th17p and Th17n. […] (B) Th17n, Th17p and Treg cells were differentiated as described (STAR Methods) and replated with Seahorse media at 68h for Seahorse assay. Extracellular acidification rate (ECAR) and oxygen consumption rate (OCR) are reported in response to mitostress test. (C) Th17p and Th17n cells were differentiated and harvested at 68h (left columns) or replated in fresh media with no TCR stimulation or cytokine for 15 minutes (right columns) and subject to LC/MS based metabolomics. (D) Cells were harvested as in C and pulsed with 13C-tagged glucose for 15 minutes. Shown is the ratio of 13C-tagged carbon out of the total carbon content associated with the metabolite (STAR Methods). (E) Th17n and Th17p cells were measured for their oxygen consumption rate in the presence of control or 40 uM etomoxir. […]
Seahorse assay was performed and seahorse media was prepared following manufacturer instructions (Agilent). […] Cytokine concentrations in supernatants of in vitro cultures were analyzed by the LegendPlex Mouse Th Cytokine Panel (13-plex) (BioLegend) according to the manufacturer's instructions and analyzed on a FACS LSR II (BD Biosciences).

“Also recorded” adds a separate entry of the source. Where only a bound is given, the exact number is not on record here.

KDMSA, sequence (P29375 whole entry): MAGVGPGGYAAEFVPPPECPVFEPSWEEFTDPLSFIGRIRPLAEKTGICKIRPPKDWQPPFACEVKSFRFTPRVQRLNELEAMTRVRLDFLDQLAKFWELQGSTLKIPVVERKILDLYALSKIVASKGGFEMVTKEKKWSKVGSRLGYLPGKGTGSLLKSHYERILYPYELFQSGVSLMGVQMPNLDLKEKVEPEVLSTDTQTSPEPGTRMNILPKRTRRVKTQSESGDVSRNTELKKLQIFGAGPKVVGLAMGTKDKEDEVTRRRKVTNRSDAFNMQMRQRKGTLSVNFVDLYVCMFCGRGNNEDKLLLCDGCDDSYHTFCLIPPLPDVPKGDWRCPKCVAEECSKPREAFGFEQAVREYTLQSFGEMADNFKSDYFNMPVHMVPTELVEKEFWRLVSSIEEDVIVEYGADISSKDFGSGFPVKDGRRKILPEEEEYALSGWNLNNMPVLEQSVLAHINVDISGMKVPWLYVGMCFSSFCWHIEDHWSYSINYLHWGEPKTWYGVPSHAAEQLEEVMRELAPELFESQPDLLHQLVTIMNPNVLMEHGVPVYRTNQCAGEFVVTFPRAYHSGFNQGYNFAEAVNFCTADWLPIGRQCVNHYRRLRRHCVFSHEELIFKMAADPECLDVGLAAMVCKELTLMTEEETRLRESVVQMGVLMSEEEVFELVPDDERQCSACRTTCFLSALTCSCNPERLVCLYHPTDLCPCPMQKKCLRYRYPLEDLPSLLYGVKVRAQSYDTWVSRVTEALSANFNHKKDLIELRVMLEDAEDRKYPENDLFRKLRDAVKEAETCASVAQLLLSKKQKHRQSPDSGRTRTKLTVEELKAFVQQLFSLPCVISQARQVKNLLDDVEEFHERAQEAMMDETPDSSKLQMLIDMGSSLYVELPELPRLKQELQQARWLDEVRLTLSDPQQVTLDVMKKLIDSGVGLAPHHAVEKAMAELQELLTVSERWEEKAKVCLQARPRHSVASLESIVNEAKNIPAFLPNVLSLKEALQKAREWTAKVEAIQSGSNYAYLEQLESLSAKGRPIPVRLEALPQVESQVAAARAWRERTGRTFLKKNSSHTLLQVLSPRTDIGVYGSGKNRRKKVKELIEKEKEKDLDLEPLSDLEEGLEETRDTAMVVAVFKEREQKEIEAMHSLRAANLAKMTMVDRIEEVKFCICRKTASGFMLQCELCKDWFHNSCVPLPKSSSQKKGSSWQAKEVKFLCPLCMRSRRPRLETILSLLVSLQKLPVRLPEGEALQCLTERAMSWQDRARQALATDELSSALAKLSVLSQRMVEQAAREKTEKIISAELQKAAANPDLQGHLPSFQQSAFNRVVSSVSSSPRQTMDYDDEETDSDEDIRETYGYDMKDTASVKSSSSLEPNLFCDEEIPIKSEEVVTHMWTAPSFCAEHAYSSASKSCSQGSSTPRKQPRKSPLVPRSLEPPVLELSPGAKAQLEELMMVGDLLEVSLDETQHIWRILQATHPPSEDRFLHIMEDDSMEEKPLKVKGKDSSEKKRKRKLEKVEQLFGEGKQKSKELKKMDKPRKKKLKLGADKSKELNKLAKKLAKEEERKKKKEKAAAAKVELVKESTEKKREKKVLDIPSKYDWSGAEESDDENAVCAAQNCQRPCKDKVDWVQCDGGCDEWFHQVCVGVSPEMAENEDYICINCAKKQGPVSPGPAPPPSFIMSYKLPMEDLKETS

For `O=C(OCC(O)CO)C(Cl)Cl` (stereo not shown) [DCA, 2,3-dihydroxypropyl-dichloroacetate], the “cytokine profile / cytokine production” value in [1] was “retained their cytokine profile”. Besides, the “IL-17 positive CD4 T cells / IL-17 expression” value in assay [2] is “increase”.

Take `C[C@]12CC[C@H](O)CC1=CC[C@@H]1[C@@H]2CC[C@]2(C)C(=O)CC[C@@H]12` [DHEA, dehydroepiandrosterone]: the “cytokine profile / cytokine production” value in assay [1] is reported as “curtailed cytokine production”. In addition, in [3], the IL1RN transcripts result was “significant decrease” and the IL9 transcripts result is reported as “significant decrease”. Besides, the “pro-pathogenic transcriptional program / module” value in assay [3] (Th17n cells) is given as “does not induce an opposite effect”. Further, the “decrease in TBX21 (Tbet) transcripts” value in [3] (Th17p) was 1 fold. The pathogenic program entry in assay [3] (Th17p cells) is given as “suppresses the pathogenic program”. Besides, in assay [3] (both Th17p and Th17n), the IL23R transcripts entry was “significant decrease”, the TBX21 transcripts result was “significant decrease” and the “decrease in IL-23R transcripts” value was “over 3 fold”. The “position on PC1 (pathogenicity phenotype)” value in assay [3] (bulk RNA-Seq of d1 Th17n and Th17p cells) is reported as “shifted them to a less pathogenic state”. In assay [4], the “IL-2 secretion in response to MOG” value is listed as “increased” and the “antigen-specific cytokine secretion in response to MOG” value is on record as “no significant alterations”. Moreover, in assay [5] (EGCG on Th17n, DHEA on Th17p), the “optic neuritis/perineuritis in host mice” value is “restricted”. Also, in assay [5] (Th17p cells differentiated with inhibitor vs vehicle), the “EAE induced by Th17p cells” value is on record as “induced a milder form of the disease; also recorded: alleviates EAE; also recorded: reduced the severity of disease at peak of EAE; also recorded: ameliorates”. In addition, the “IL-17 positive CD4 T cells / IL-17 expression” value in assay [2] is given as “decrease”.

`O=C(O)CCNc1cc(N2CCc3ccccc3CC2)nc(-c2ccccn2)n1` [GSK-J1]: the IC50 (commonly the midpoint of a concentration-inhibition curve) was 53 nM on UTX (KDM6A); 170 nM at KDMSB; 550 nM on KDMSC; 6800 nM at KDMSA; more than 20000 nM in assay [6]. The “inhibitory activity against 100 protein kinases” value in the assay on 100 protein kinases is given as “no significant inhibitory activity”.

As to `CCOC(=O)[C@@]1(CCCCCCOc2ccc(Cl)cc2)CO1` [etomoxir], the oxygen consumption rate entry in the assay on Th17n and Th17p cells is given as “decreased”.

As to `NCCCCN` [putrescine], the “rescue by putrescine of the observed effects of ODC1−/−” value in [2] (ODC1−/− Th17 cells) is recorded as “rescued”. For the same compound, in [2] (Th17n cells, 2.5 mM putrescine), the “reversal by putrescine of the upregulation of Foxp3 by SAT1 inhibitor” value is reported as “partially reversed”. Also, the “rescue of the effect of DFMO by addition of putrescine” value was “rescues the effect of DFMO; also recorded: completely reversed their phenotype” in assay [2] (cells treated with DFMO, 2.5 mM putrescine); “rescues the effect of DFMO” in assay [2] (non-pathogenic Th17 cells); “rescues the effect of DFMO” in assay [2] (pathogenic and non-pathogenic Th17 cells). For the same compound, the “rescue by putrescine of the effect of diminazene aceturate” value in assay [2] (non-pathogenic Th17 cells) is recorded as “rescues the effect of diminazene aceturate”. Further, in [2] (nonpathogenic Th17 cells), the “rescue by putrescine of the DFMO-induced increase in FoxP3 CD4 T cells” value is given as “rescues the increase in FoxP3 CD4 T cells”.
